According to patent US9604931B2, “Nuclear receptor binding agents” (GTx, Inc., priority 2007, dated 2017):

Key:
ER-α [1] = target: T1, ER-α (Rattus norvegicus (Rat), UniProt P06211); type: cell-based; conditions: for Estradiol activity at 100 nM of NRBA, ER-α: 100 nM compound compared to 1 nM estradiol
Procedure: COS or 293 cells were plated in DME without phenol red+10% cs FBS at 90,000 cells per well in 24 well plates, and were transfected with 0.25 μg of the vector “ERE-LUC”, where a firefly luciferase gene was driven by two estrogen responsive elements and 0.02 μg of the control CMV-LUC, Renilla where a luciferase gene was driven by a CMV promoter. […] All the receptors were cloned from rat tissue into the PCR3.1 vector backbone. Twenty four hours post transfection, cells were treated with compounds of this invention, estrogen, DHT, and other NRBAs or combinations thereof. Cells were harvested 48 hrs after transfection, and assayed for firefly and Renilla luciferase activity.

ER-β = ER-β (Rattus norvegicus (Rat), UniProt Q62986); assay: ER-β transactivation (ERE-LUC) in COS or 293 cells; type: cell-based; conditions: for activation at 0.1 µM: HEK293, 48 h, read-out: Estradiol activity at 100 nM of NRBA, ER-β, 100 nM compound compared to 1 nM estradiol
Chain of ER-β (Q62986 whole entry): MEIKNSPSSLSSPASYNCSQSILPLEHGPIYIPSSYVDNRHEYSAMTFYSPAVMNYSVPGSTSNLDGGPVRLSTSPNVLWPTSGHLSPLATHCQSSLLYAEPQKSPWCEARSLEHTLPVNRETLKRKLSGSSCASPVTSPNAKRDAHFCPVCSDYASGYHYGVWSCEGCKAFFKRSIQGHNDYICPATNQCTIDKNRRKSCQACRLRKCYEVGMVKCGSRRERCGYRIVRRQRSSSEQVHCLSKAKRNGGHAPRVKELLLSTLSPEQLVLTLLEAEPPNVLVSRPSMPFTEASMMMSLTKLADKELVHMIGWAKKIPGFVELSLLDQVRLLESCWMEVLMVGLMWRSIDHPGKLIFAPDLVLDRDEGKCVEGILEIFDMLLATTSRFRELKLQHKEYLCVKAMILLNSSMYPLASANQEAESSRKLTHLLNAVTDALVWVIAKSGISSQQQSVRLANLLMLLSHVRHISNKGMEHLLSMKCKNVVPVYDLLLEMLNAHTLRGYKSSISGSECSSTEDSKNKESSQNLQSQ

ER-α [2] = target: T1, ER-α; assay: Transient transactivation assay in HEK-293 cells, ER-α and ERE-LUC; type: cell-based
Procedure: Human estrogen receptors (ER-α and ER-β) were cloned from prostate cDNA into a pCR3.1 plasmid vector backbone. PGC-1 was cloned into mammalian two hybrid vector pACT. ER-β H475 was mutated to alanine using site-directed mutagenesis. Sequencing was performed to determine the absence of any non specific mutations. SHP promoter (−572 to +10) (26) was cloned into pGL3 basic LUC reporter vector and human FXR was cloned into pCR3.1. HEK-293 cells were plated at 100,000 cells per well of a 24 well plate in […] (DMEM)+5% charcoal-stripped fetal bovine serum (csFBS). The cells were transfected using Lipofectamine (Invitrogen, Carlsbad, Calif.) with 0.25 μg ERE-LUC, 0.02 μg CMV-LUC (renilla luciferase) and 12.5 ng of rat ER-α or 25 ng rat ER-β. […] Luciferase assays were performed 48 hrs after transfection.
To determine if the selectivity in ER binding also translated into ER-β-selective activity, transient transactivation assays were performed in HEK-293 cells transfected with plasmids encoding ER-α or ER-β and ERE-LUC. The cells were treated with varying concentrations of the ligands and their EC50 values were determined.

rat aorta rings = assay: Rat aortic ring relaxation; conditions: 10^-6 PE constriction; for EC50: Rattus norvegicus
Text: Experimental protocol. Equipment used in these studies included a 4-tissue bath system with reservoirs and circulators (RadnotiGlass Technology, Monrovia, Calif.), DSI/Ponemah tissue force analyzer 7700 (Valley View, Ohio), and iWorx/CB Sciencesforce transducers FT-302. The 250 g rats were anesthetized with isoflurane to produce deep anesthesia. The chest of the rat was opened, and about 3 cm length of aorta was removed and placed in a Petri dish containing room temperature Krebs salt solution (KSS, in mM: 120 NaCl, 5 KCl, 1.2 MgSO4.7H20, 2.5 CaCl2.2H2O, 1 KH2PO4, 25 NaHCO3, and 11 glucose). Fat and connective tissue were removed from the aorta taking care not to stretch the vessel. The aorta was then divided into 3-mm-wide rings. Triangular wire holders were inserted through the lumen of the vessel and connected to the force transducer and tissue holder rod in the vessel bath.
Analog-to-digital conversions of force waveforms were accomplished with a DSI/Ponemah tissue force analyzer 7700. The converted data were automatically analyzed with Ponemah Physiology-Smooth Muscle software. All data are summarized as means±standard error. Differences between means were assessed by a conventional ANOVA. This was followed by Student's test. P<0.05 was considered to be statistically significant.
The tension on the rings was adjusted to 1.0 g passive force using the tension adjustment dial for each transducer and allowed to equilibrate for 60 min in the bath with a 95% O2-5% CO2 gas mixture. The rings were washed with fresh buffer every 20 min. Passive force was readjusted to 1.0 g as needed during this period. When rings were stable at 1.0 g of passive force, the baseline was calculated.
Phenylephrine (PE) at a final concentration of […] was added to the bath to contract the ring, and force was allowed to stabilize for 10 min. Then acetylcholine (ACH) at a final concentration of 10^−5 M was added to the precontracted rings to test for endothelial integrity […]. After the initial test for vessel viability and endothelial integrity, the rings were washed three times for 10 min with buffer, allowing it to equilibrate to active force stabilized at 1 g.
Cumulative concentration-response curves to NRBAs were created by increasing the NRBAs concentration in the tissue bath by successive addition of appropriate dilutions of stock solutions to achieve final bath concentrations of 300 nM to 0.15 mM NRBAs.
Table 10 summarizes EC50 values and maximal % decrease of the 10^−6 PE constriction of the aortic ring for individual NRBAs tested

[3] = system: Rat Aortic Smooth Muscle Cells (RASMC); assay: RASMC cell proliferation assay (WST-1); type: cell-based; conditions: for EC50: Rattus norvegicus, inhibitory effect sigmoid Emax model, read-out: EC50 for inhibition of RASMC proliferation; for Proliferation of RASMC: concentration between 10-30 μM
Procedure: EC50 values were calculated using WinNonLin 5.0.1 using the inhibitory effect sigmoid Emax model.

For `O=c1c2c(O)cc(O)cc2c(Br)cn1-c1ccc(O)cc1` [12u, 4-bromo-6,8-dihydroxy-2-(4-hydroxyphenyl)isoquinolin-1(2H)-one], the “Classification as ER-α agonist” value (ER-α [1]) was “ER-α agonists”, the “Estradiol activity at 100 nM of NRBA, ER-α” value (ER-α [1]) was 62% and the ER-β agonist activity (ER-β) was “ER-β agonist activity”. The activation at 0.1 µM (ER-β) was 85%, the “Function on ER-α in transactivation” value (ER-α [2]) was “agonists” and the “Mean of Maximal % Decrease of the PE constriction of the aortic ring” value (rat aorta rings) was 50.97%. For the same molecule, the EC50 (rat aorta rings) was 30 µM, the EC50 [3] was 9.56 µM and the “Proliferation of RASMC” value [3] was “inhibited the proliferation of RASMC in a dose-dependent manner”.

With `N#Cc1cn(-c2ccc(O)cc2)c(=O)c2c(O)cc(O)cc12` [14m, 6,8-dihydroxy-2-(4-hydroxyphenyl)-1-oxo-1,2-dihydroisoquinoline-4-carbonitrile] the “Estradiol activity at 100 nM of NRBA, ER-α” value (ER-α [1]) was 49%, the activation at 0.1 µM (ER-β) was 74.5% and the “Function on ER-α in transactivation” value (ER-α [2]) was “agonists”. The “Mean of Maximal % Decrease of the PE constriction of the aortic ring” value (rat aorta rings) was 94.49%, the EC50 (rat aorta rings) was 7.64 µM and the EC50 [3] was 7.89 µM. The “Proliferation of RASMC” value [3] was “inhibited the proliferation of RASMC in a dose-dependent manner”.
